Patent US9814714B2, “Kinase modulation, and indications therefor” (Plexxikon Inc., priority 2015, dated 2017)
pIC50: −log10 of the molar value.

How the values were obtained:
[1] = test system: BRAF-V600E in SK-MEL-239 parental cells; assay: ERK/MEK phosphorylation and growth assays, SK-MEL-239 parental; assay type: cell-based
[2] = test system: BRAF-V600E in vemurafenib-resistant SK-MEL-239 C3 cells
BRAF_V600R = BRAF_V600R (Homo sapiens, UniProt P15056, V600R); assay: RAF kinase biochemical assay, BRAF V600R; conditions: Table 3; ATP 100 μM
Method: BRAF proteins were produced in insect cells at Plexxikon Inc. as N-terminally His-tagged fragments encompassing the kinase domain.
1) Test compounds in DMSO were serially diluted and plated into 384-well assay plates at 1 μL/well.
2) Added were 15 μL/well of RAF enzyme and biotinylated-MEK1 substrate in kinase buffer.
3) Added were 4 μL of ATP (500 μM) in kinase buffer.
5) After a brief spin down, the plate was incubated at about room temperature for 40-50 minutes. 6) Added was 5 μL of Stop buffer at final EDTA 20 mM; anti-phospho-MEK1 1:2,500; donor/acceptor beads 3 μg/mL. 7) After brief spin down, the plate was incubated at room temperature for about 3 hours. 8) The plate was read on the Envision multilabel plate reader (Perkin Elmer). […] 2. Results

Sequence of BRAF_V600R (P15056 448-723 V600R): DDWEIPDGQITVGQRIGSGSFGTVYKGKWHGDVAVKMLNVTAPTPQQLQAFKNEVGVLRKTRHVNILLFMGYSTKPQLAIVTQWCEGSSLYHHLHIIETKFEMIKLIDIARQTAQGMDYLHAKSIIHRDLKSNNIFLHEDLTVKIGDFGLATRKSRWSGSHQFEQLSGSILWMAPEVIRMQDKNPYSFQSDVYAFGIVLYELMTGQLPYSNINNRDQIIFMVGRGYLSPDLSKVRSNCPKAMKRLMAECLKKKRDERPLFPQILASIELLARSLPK

## O=C(c1c(F)ccc(NS(=O)(=O)N2CC[C@@H](F)C2)c1F)c1c[nH]c2ncc(-c3cnc(C4CC4)nc3)cc12 [Formula I, (3R)—N-[3-[5-(2-cyclopropylpyrimidin-5-yl)-1H-pyrrolo[2,3-b]pyridine-3-carbonyl]-2,4-difluorophenyl]-3-fluoropyrrolidine-1-sulfonamide]
[1]
  Inhibition of BRAF-V600E in SK-MEL-239 parental (in words): potent inhibitor
[2]
  Inhibition of BRAF-V600E in vemurafenib-resistant C3 (in words): potent inhibitor
BRAF_V600R
  pIC50: 8.46
